From ChEMBL document CHEMBL3045570, “Rational herbicide design by inhibition of tryptophan biosynthesis” (Bioorg Med Chem Lett, 1999)
Active and inactive are the calls of the source. The calls are words filed in the database; no cut-off is given here.

How the values were obtained:
[1] = Inhibition of Salmonella enterica subsp. enterica serovar Typhimurium tryptophan synthase alpha subunit; conditions: read-out: I50
Arabidopsis thaliana [2] = test: Herbicidal activity against Arabidopsis thaliana seedlings assessed as injury at 8 to 16 uM; format: functional, organism-based
Arabidopsis thaliana [3] = test: Herbicidal activity against Arabidopsis thaliana seedlings assessed as injury at 8 to 1000 uM in presence of tryptophan; format: functional, organism-based
Chenopodium album = test: Herbicidal activity against Chenopodium album assessed as injury at 4 kg/ha applied as spray during postemergence measured after 2 weeks; format: functional
Arabidopsis thaliana [4] = test: Herbicidal activity against Arabidopsis thaliana seedlings assessed as injury at 31 to 1000 uM; format: functional, organism-based
Amaranthus viridis = test: Herbicidal activity against Amaranthus viridis assessed as injury at 4 kg/ha applied as spray during postemergence measured after 2 weeks; format: functional
Arabidopsis thaliana [5] = test: Herbicidal activity against Arabidopsis thaliana seedlings assessed as chlorosis at 125 to 1000 uM; format: functional, organism-based
Arabidopsis thaliana [6] = test: Herbicidal activity against Arabidopsis thaliana seedlings assessed as chlorosis at 8 to 1000 uM; format: functional, organism-based
Arabidopsis thaliana [7] = test: Herbicidal activity against Arabidopsis thaliana seedlings assessed as injury at 8 to 1000 uM; format: functional, organism-based
[8] = molecular target: T1, Tryptophan synthase alpha /beta chains (Escherichia coli K-12, UniProt P0A877+P0A879); test: Binding affinity to tryptophan synthase alpha2/beta2 complex in Escherichia coli K-12 by equlibrium dialysis method; format: protein-complex assay
T1 sequence (P0A879 whole entry): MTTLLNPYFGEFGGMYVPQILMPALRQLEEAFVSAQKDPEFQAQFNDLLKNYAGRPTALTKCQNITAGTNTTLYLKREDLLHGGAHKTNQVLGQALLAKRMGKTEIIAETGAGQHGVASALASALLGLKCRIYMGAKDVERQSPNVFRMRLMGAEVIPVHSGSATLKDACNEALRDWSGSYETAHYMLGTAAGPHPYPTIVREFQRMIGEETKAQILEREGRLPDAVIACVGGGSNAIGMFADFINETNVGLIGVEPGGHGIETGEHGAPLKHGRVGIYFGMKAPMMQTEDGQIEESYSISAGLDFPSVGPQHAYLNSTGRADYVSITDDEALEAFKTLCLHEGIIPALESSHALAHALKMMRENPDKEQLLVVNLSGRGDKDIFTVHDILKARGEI
T1 sequence (P0A877 whole entry): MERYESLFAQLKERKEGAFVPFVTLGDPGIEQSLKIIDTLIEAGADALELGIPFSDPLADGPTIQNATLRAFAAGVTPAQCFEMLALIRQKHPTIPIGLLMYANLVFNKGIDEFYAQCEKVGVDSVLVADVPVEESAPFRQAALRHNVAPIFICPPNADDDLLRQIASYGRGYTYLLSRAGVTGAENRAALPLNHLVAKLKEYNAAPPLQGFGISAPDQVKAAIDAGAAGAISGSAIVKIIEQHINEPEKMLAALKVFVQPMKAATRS

SMILES	IC50 [1] [nM]	Activity (Arabidopsis thaliana [2])	Activity (Arabidopsis thaliana [3])	Activity (Chenopodium album)	Activity (Arabidopsis thaliana [4])	Activity (Amaranthus viridis)	Activity (Arabidopsis thaliana [5])	Activity (Arabidopsis thaliana [6])	Activity (Arabidopsis thaliana [7])	Ki [8] [µM]
O=P(O)(O)CCCCc1c[nH]c2ccccc12	20000	–	–	–	–	–	–	–	–	–
O=P(O)(O)CCCc1c[nH]c2ccccc12	12500	–	–	–	–	–	–	–	–	–
O=P(O)(O)CCCCSc1ccccc1O	130	inactive	inactive	<=80%	Active	<=80%	Active	–	–	–
O=P(O)(O)/C=C/CCS(=O)(=O)c1ccccc1O	360	–	–	inactive	–	inactive	–	–	–	–
Nc1ccccc1SCCCCP(=O)(O)O	400	–	–	<=65%	–	<=65%	–	–	–	–
O=P(O)(O)/C=C/CC[S+]([O-])c1ccccc1O (centres undefined)	440	–	inactive	<=80%	–	<=80%	–	Active	Active	–
O=P(O)(O)/C=C/CCSc1ccccc1O	570	–	inactive	<=80%	–	<=80%	–	Active	Active	–
O=P(O)(O)OCCCc1c[nH]c2ccccc12	5000	–	–	–	–	–	–	–	–	15
